Results published in PMC12259270, “Sensory neuron–expressed FGF13 controls nociceptive signaling in diabetic neuropathy models” (The Journal of Clinical Investigation, 2025).
Where “and” joins values, the source holds several entries; their conditions need not be identical. Equal entries are not always repeated. Residues, ends and D or L forms follow the SMILES beside them. *: point of attachment. Cbz = O=C(OCc1ccccc1)*; NHPh = c1ccc(N*)cc1; OtBu = CC(C)(C)O*

Test system: donor-derived DRG neurons
Assay: Whole-cell current-clamp, human donor-derived DRG neurons
Assay type: cell-based
Text: Human donor (hDRG) neurons. Dorsal root ganglia were recovered from consented, de-identified organ and tissue donors at the University of Cincinnati Medical Center following previously described protocols (57, 58). Recovered tissues were transported in oxygenated, ice-cold N-methyl-D-glucamine (NMDG) artificial […] (aCSF, mM): 93 NMDG, 2.5 KCl, 1.25 NaH2PO4, 30 NaHCO3, 20 HEPES, 25 Glucose, 5 Ascorbic acid, 2 Thiourea, 3 Na+ pyruvate, 10 MgSO4, 0.5 CaCl2, 12 N-acetylcysteine, adjusted to pH 7.4 with HCl). hDRGs were isolated from connective tissue, fat, roots, and nerves and then minced into small 1-3 mm pieces which were enzymatically treated with warmed papain (45U) followed by collagenase (4.5 mg/200µl) each for 40 minutes at 37 °C, 5% CO2 in HBSS with 5 mM HEPES (Hanks’ Balanced Salt Solution with 4-2 (2-hydrozyethyl)-1-piperazineethananessulfonic acid; Gibco). Neurons were dissociated by trituration and incubated in warmed Neurobasal A-based DRG media (with penicillin/streptomycin, B27 supplement (Gibco), fetal bovine serum (FBS), and GlutaMAX (Gibco, cat # 35050061), as previously described. Dissociated DRG suspension was plated onto poly-d-lysine (0.01 mg/ml, Sigma) and collagen (1 mg/ml, Sigma) coated coverslips and incubated 2 days. […]
following salts: extracellular (mM): 140 NaCl, 3 KCl, 1 MgCl2, 1 CaCl2, 10 HEPES, 10 glucose, pH 7.3; intracellular (mM): 130 CH3O3 SCs, 1 EGTA, 10 NaCl, 10 HEPES, pH 7.3. Membrane capacitance and series resistance were estimated by the dial settings on the amplifier and compensated for electronically by 70–80%.
Data was acquired at 20 kHz and filtered at 5 kHz before digitization and storage. All experimental parameters were controlled by Clampex 9.2 software (Molecular Devices) and interfaced to the electrophysiological equipment using a Digidata 1300 analog–digital interface (Molecular Devices). […]
μM PW164 or ZL192 in the extracellular solution. The recording solution consisted of the following salts: extracellular (mM): 130 NaCl, 3 KCl, 30 TEA, 0.1 CdCl2 1 MgCl2, 1 CaCl2, 10 HEPES, 10 glucose, pH 7.3; intracellular (mM): 140 CsF, 1.1 EGTA, 10 NaCl, 10 HEPES, pH 7.3.
Human donor DRG neurons: Coverslips were transferred to a recording chamber and bathed in extracellular solution (mM): 145 NaCl, 3 KCl, 2.5 CaCl2, 1.2 MgCl2, 10 HEPES, 7 glucose, 0.05 CdCl2 adjusted to pH 7.4 with NaOH, with a flow rate of 1-2 ml/min. Borosilicate glass pipettes with the resistance of 1.5 to 2.5 MΩ were made using a P-1000 micropipette puller (Sutter Instrument, Novato, CA, USA). The intracellular solution contained (mM): 130 K-gluconate, 5 KCl, 5 NaCl, 2 MgCl2, 0.3 Ethylene glycol-bis(2-aminoethylether)- NNN’N’-tetraacetic acid (EGTA), 10 HEPES, 2 Na ATP, adjusted to pH 7.3 with KOH and 294 mOsm with sucrose. Coverslips were pre-incubated in 50 µM PW164 or ZL192 or 0.1% DMSO vehicle for 1 hour before recording. Recordings were obtained on MultiClamp 700B and Digidata 1550A (Molecular Devices) and sampled […]
at 20 kHz. Neurons were investigated if resting membrane potential was below -45 mV. Neurons were held under current clamp, and membrane properties and action potential discharge were assessed as previously described […]
Human Dorsal Root Ganglia Procurement
Human dorsal root ganglia (DRGs) procurement procedures were performed in accordance with the Institutional Review Boards at the University of Texas at Dallas. DRGs were procured from organ donors through a collaboration with the Southwest Transplant Alliance (STA). DRGs were frozen in powdered dry ice at the time of extraction and then stored in a -80°C freezer until use. Details on tissue procurement procedures, quality metrics, and tissue preparation can be found on protocols.io doi:10.17504/protocols.io.kqdg32qr1v25/v1 (2024).
The medical history of each donor was provided by the STA and is a summary of information from hospital records and family members. Donor demographics, condition (non-diabetic vs diabetic painful neuropathy […]

[1] = 50 µM, 1 hour preincubation, relative to control

`COC(=O)[C@@H](NC(=O)[C@H](CCC(=O)OC(C)(C)C)NC(=O)[C@H](CC(C)C)NC(=O)[C@@H]1CCCN1C(=O)OCc1ccccc1)C(C)C` [PW164] (Cbz-PLE(OtBu)V-OMe) was tested, and the action potential firing [1] was “reduced action potential firing”, the “rheobase to fire an action potential” value [1] was “increased rheobase” and the “Suppl Fig. S16A, 1x” value (single cells) was 1.

`CC(=O)N[C@@H](Cc1ccccc1)C(=O)N[C@@H](CC(C)C)C(=O)N1CCC[C@H]1C(=O)N[C@@H](CCCCN)C(=O)Nc1ccccc1` [ZL192] (Ac-FLPK-NHPh) was tested, and the “rheobase to fire an action potential” value [1] was “decreased rheobase”, the “Suppl Fig. S16A, 1x” value (single cells) was 1 and the “Suppl Fig. S16A, 3x” value (3x, single cells) was 2 and 1.
